According to US10414811B2, “Protease-resistant lipidated GLP-1 analogs” (MEDIMMUNE LIMITED, priority 2015, dated 2019):
Read-outs that look alike come from different tables or passages of the source.

Experiments:
Assay type in all cases: cell-based
[1] = target: T1, human glucose-dependent insulinotropic peptide receptor (GIPR) (Homo sapiens, UniProt P48546); assay: cAMP assay, human GIPR cells; details: cAMP assay
T1 construct: expressed in transfected cells
T1 sequence (P48546 22-466): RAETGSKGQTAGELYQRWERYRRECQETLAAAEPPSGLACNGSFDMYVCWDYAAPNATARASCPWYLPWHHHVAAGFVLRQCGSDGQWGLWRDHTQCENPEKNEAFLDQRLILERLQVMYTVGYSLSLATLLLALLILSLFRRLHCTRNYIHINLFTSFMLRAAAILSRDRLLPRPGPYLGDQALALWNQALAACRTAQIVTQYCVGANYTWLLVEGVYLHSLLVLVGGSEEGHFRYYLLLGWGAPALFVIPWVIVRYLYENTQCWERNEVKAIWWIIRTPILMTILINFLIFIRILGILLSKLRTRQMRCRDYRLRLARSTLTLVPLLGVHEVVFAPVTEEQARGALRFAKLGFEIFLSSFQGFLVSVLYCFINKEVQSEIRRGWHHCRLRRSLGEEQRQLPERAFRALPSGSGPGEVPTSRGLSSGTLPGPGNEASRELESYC
Method in brief: (§1)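 Peptide-stimulated cAMP measured by two-step HTRF after a 30 min room-temperature incubation with receptor-expressing cells (hGLP-1R, hGIPR at 1×10^5 cells/ml; hGCGR at 2×10^5 cells/ml). Duplicate dilutions; EC50 from 4-parameter logistic fit of % Delta F.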

GLP-1R (INS1e assay) = target: T2, GLP-1R (INS1e assay) (Rattus norvegicus, UniProt P32301); assay: INS1e assay, cAMP activity at GLP-1R; details: mono-lipidated peptides
T2 construct: endogenous in cells; host or cells: INS-1E cells
T2 sequence (P32301 22-463): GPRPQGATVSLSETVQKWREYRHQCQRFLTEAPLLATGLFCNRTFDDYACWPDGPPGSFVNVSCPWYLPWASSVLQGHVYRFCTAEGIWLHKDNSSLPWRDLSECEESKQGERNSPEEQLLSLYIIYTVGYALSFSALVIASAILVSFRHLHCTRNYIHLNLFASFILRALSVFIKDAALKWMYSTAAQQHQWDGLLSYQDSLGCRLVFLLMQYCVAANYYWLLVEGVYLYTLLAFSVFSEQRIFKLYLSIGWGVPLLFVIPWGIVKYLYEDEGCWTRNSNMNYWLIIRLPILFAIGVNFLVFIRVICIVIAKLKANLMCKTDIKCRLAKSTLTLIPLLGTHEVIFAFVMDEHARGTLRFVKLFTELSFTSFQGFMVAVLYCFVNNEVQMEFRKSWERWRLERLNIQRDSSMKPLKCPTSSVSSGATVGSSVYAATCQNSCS
Method in brief: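 cAMP was quantified by two-step HTRF, using anti-cAMP cryptate donor and cAMP-d2 acceptor, each diluted 1/20 in conjugate and lysis buffer. EC50 values of the synthetic peptides were derived from the cAMP readout.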

[2] = target: T3, human GLP-1 receptor (GLP-1R) (Homo sapiens, UniProt P43220); assay: cAMP assay, human GLP-1R cells
T3 construct: expressed in transfected cells
Method in brief: as §1

[3] = target: T4, human glucagon receptor (GCGR) (Homo sapiens, UniProt P47871); assay: cAMP assay, human GCGR cells; details: cAMP assay
T4 construct: expressed in transfected cells
Method in brief: as §1

[4] = first determination (n1), read-out: Primary assay EC50 GIP-R (n1)
[5] = second determination (n2), read-out: Primary assay EC50 GIP-R (n2)
[6] = replicate n1, read-out: INS1e assay EC50 GLP-1R n1
[7] = cAMP assay, first determination (n1), read-out: Primary assay EC50 GLP-1R n1
[8] = mean of n1 and n2, read-out: Mean pM GLP-1R
[9] = first determination (n1), read-out: Primary assay EC50 Gluc-R (n1)
[10] = second determination (n2), read-out: Primary assay EC50 Gluc-R (n2)

T4 sequence (P47871 26-477): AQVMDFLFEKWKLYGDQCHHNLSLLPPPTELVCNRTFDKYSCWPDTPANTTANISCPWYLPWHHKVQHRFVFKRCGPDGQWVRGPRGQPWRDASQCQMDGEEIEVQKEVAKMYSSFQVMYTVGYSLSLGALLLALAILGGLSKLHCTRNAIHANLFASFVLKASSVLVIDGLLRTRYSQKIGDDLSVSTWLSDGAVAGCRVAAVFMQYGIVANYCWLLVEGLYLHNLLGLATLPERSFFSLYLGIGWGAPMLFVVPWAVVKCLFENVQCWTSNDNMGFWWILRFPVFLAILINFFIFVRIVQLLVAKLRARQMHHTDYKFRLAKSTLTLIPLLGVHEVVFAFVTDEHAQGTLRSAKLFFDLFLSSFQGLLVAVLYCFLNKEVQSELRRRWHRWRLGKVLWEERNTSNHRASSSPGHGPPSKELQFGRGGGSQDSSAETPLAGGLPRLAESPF
T3 sequence (P43220 24-463): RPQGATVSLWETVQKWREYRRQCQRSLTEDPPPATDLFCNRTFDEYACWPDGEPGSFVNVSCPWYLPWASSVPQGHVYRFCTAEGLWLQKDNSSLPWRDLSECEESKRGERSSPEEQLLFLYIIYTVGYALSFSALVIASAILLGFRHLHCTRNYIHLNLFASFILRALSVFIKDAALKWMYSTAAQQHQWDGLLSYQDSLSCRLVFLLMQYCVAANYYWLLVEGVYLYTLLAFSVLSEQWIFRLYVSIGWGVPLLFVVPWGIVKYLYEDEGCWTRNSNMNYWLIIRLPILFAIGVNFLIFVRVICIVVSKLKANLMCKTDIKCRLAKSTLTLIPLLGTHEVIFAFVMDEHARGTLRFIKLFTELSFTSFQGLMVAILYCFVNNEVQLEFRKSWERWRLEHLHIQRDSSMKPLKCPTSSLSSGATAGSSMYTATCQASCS

EC50 [1, 4] [nM] | EC50 [1, 5] [nM] | EC50 (GLP-1R (INS1e assay); [6]) [pM] | EC50 [2, 7] [pM] | EC50 ([2]; cAMP assay, second determination (n2), read-out: Primary assay EC50 GLP-1R n2) [pM] | EC50 [2, 8] [pM] | EC50 [3, 9] [nM] | EC50 [3, 10] [nM] | EC50 (GLP-1R (INS1e assay); mean of n1 and n2, read-out: INS1e assay EC50 Mean pM GLP-1R) [pM] | EC50 (GLP-1R (INS1e assay); replicate n2, read-out: INS1e assay EC50 GLP-1R n2) [pM] | SMILES
≥ 26 | ≥ 26 | 21.4 | 1.5 | 2.5 | 2 | ≥ 26 | ≥ 26 |  |  | CCCCCCCCCCCCCCCCCC(=O)NCCOCCOCC(=O)NCCOCCOCC(=O)NCCOCCOCC(=O)NCCCC[C@H](NC(=O)[C@H](C)NC(=O)[C@H](C)NC(=O)[C@H](CCC(=O)O)NC(=O)CNC(=O)[C@H](CCC(=O)O)NC(=O)[C@H](CC(C)C)NC(=O)[C@](C)(Cc1ccccc1)NC(=O)[C@H](CO)NC(=O)[C@H](CO)NC(=O)[C@@H](NC(=O)[C@H](CC(=O)O)NC(=O)[C@H](CO)NC(=O)[C@@H](NC(=O)[C@](C)(Cc1ccccc1)NC(=O)[C@H](CO)NC(=O)CNC(=O)[C@H](CCC(=O)O)NC(=O)C(C)(C)NC(=O)[C@@H](N)Cc1c[nH]cn1)[C@@H](C)O)C(C)C)C(=O)N[C@@H](CCC(=O)O)C(=O)N[C@@](C)(Cc1ccccc1)C(=O)N[C@H](C(=O)N[C@@H](C)C(=O)N[C@@](C)(Cc1ccccc1)C(=O)N[C@H](C(=O)N[C@H](C(=O)N[C@@](C)(CCCCN)C(=O)NCC(=O)NCC(N)=O)C(C)C)C(C)C)[C@@H](C)CC [compound 52]
≥ 26 | ≥ 26 | 39.6 | 1.5 |  | 1.1 | ≥ 26 | ≥ 26 | 33.8 | 28 | CCCCCCCCCCCC(=O)NCCOCCOCC(=O)NCCOCCOCC(=O)NCCOCCOCC(=O)NCCCC[C@H](NC(=O)[C@@H](NC(=O)[C@@H](NC(=O)[C@](C)(Cc1ccccc1)NC(=O)[C@H](C)NC(=O)[C@@H](NC(=O)[C@](C)(Cc1ccccc1)NC(=O)[C@H](CCC(=O)O)NC(=O)[C@](C)(CCCCN)NC(=O)[C@H](C)NC(=O)[C@H](C)NC(=O)[C@H](CCC(=O)O)NC(=O)CNC(=O)[C@H](CCC(=O)O)NC(=O)[C@H](CC(C)C)NC(=O)[C@](C)(Cc1ccccc1)NC(=O)[C@H](CO)NC(=O)[C@](C)(CO)NC(=O)[C@@H](NC(=O)[C@H](CC(=O)O)NC(=O)[C@H](CO)NC(=O)[C@@H](NC(=O)[C@](C)(Cc1ccccc1)NC(=O)[C@H](CO)NC(=O)CNC(=O)[C@H](CCC(=O)O)NC(=O)C(C)(C)NC(=O)[C@@H](N)Cc1c[nH]cn1)[C@@H](C)O)C(C)C)[C@@H](C)CC)C(C)C)C(C)C)C(=O)NCC(=O)NCC(N)=O [compound 172]
